According to patent publication US4465687A, “Thienamycin derivatives as anti-inflammatory agents” (Merck & Co., Inc., priority 1982, dated 1984):

Biological target: T1, Human Polymorphonuclear Leukocyte Elastase (Homo sapiens, UniProt P08246)
T1 construct: Crude extract of human polymorphonuclear leukocytes (PMN) containing elastase activity; endogenous in cells; host or cells: human polymorphonuclear leukocytes (crude extract)
T1 sequence (P08246 30-247 limits assumed): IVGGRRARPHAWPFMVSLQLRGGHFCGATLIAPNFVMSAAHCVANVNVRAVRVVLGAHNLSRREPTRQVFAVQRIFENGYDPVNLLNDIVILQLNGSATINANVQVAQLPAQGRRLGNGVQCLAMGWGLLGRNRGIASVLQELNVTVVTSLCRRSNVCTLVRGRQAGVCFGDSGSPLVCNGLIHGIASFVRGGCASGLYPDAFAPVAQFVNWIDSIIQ
Experiment: Inhibition of human polymorphonuclear leukocyte elastase via hydrolysis of N-t-Boc-alanyl-alanyl-prolylalanine-p-nitroanilide
Assay type: biochemical
Conditions: measured within 2 minutes, crude PMN extract; for inhibition at 5 µg/mL: Conc. of compound 5 μg/ml; for inhibition at 20 µg/mL: Conc. of compound 20 μg/ml; for inhibition at 50 µg/mL: Conc. of compound 50 μg/ml; for inhibition at 1 µg/mL: Conc. of compound 1 μg/ml; for inhibition at 2 µg/mL: Conc. of compound 2 μg/ml
Procedure: Protocol--Enzyme Assays for the Inhibition of Human Polymorphonuclear Leukocyte Elastase Via Hydrolysis of N-t-Boc-alanyl-alanyl-prolylalanine-p-nitroanilide
0.05M TES (N-tris[hydroxymethyl]methyl-2-amino-ethanesulfonic acid) Buffer, pH 7.5.
0.2 mM N-t-Boc-alanyl-alanyl-Prolyl-Alanine-p-nitroanilide (Boc-AAPAN).
To prepare substrate, the solid (m.w. 550) was first dissolved in 10.0 ml DMSO. Buffer at pH 7.5 was then added to a final volume of 100 ml.
Crude extract of human polymorphonuclear leukocytes (PMN) containing elastase activity.
Inhibitors (thienamycin esters) to be treated dissolved in DMSO just before use.
To 1.0 ml of 0.2 mM Boc-AAPAN in a cuvette, 0.01-0.1 ml of DMSO with or without inhibitor was added. After mixing, a measurement was taken at 410 mμ to detect any spontaneous hydrolysis due to presence of test compound. 0.05 Milliliters of PMN extract was then added and the ΔOD/min at 410 mμ was measured and recorded. Beckman model 35 spectrophotometer was used.
The elastase activity in the crude PMN extract may vary from one preparation to another. A control of each new batch is run, and the volume added in the assay procedure is adjusted according to activity.

For CCCC(=O)NCCSC1=C(C(=O)OCc2ccc([N+](=O)[O-])cc2)N2C(=O)[C@H]([C@@H](C)OC(C)=O)[C@H]2C1 [COCH2 C2 H5 / H / Ac / PNB], which inhibition at 5 µg/mL is on record?
Its inhibition at 5 µg/mL is 31%.

What about the inhibition at 20 µg/mL of the same compound?
Its inhibition at 20 µg/mL is 69%.

What about the inhibition at 50 µg/mL of the same compound?
The inhibition at 50 µg/mL was 89%.

Which inhibition at 1 µg/mL does the source give for CC(O)[C@H]1C(=O)N2C(C(=O)OCc3ccc([N+](=O)[O-])cc3)=C(SCCNC(=O)Cc3ccccc3)C[C@H]12 (stereo partly drawn) [COCH2 C6 H5 / H / H / PNB] here?
Its inhibition at 1 µg/mL is 47%.

What about the inhibition at 5 µg/mL of the same compound?
Its inhibition at 5 µg/mL is 84%.

What about the inhibition at 20 µg/mL of the same compound?
The inhibition at 20 µg/mL was 95%.

And the inhibition at 50 µg/mL?
The inhibition at 50 µg/mL was 100%.

With CC(O)[C@H]1C(=O)N2C(C(=O)OCc3ccc([N+](=O)[O-])cc3)=C(SCCN3C(=O)c4ccccc4C3=O)C[C@H]12 (stereo partly drawn) [phthaloyl / H / PNB] as the compound, how does the inhibition at 1 µg/mL read?
Its inhibition at 1 µg/mL is 76%.

And the inhibition at 2 µg/mL?
Its inhibition at 2 µg/mL is 86%.

What about the inhibition at 5 µg/mL of the same compound?
The inhibition at 5 µg/mL was 93%.

What about the inhibition at 20 µg/mL of the same compound?
The inhibition at 20 µg/mL was 100%.

And the inhibition at 0.5 µg/mL (Conc. of compound .5 μg/ml)?
The inhibition at 0.5 µg/mL was 50%.

Which inhibition at 1 µg/mL does the source give for CC(O)[C@H]1C(=O)N2C(C(=O)OCc3ccccc3)=C(SCCN3C(=O)c4ccccc4C3=O)C[C@H]12 (stereo partly drawn) [phthaloyl / H / benzyl] here?
Its inhibition at 1 µg/mL is 39%.

What about the inhibition at 2 µg/mL of the same compound?
The inhibition at 2 µg/mL was 56%.

What about the inhibition at 5 µg/mL of the same compound?
Its inhibition at 5 µg/mL is 89%.

And the inhibition at 20 µg/mL?
Its inhibition at 20 µg/mL is 100%.

Which inhibition at 1 µg/mL does the source give for CC(O[Si](C)(C)C)[C@H]1C(=O)N2C(C(=O)OCc3ccc([N+](=O)[O-])cc3)=C(SCCN3C(=O)c4ccccc4C3=O)C[C@H]12 (stereo partly drawn) [phthaloyl / TMS / PNB] here?
The inhibition at 1 µg/mL was 38%.

What about the inhibition at 2 µg/mL of the same compound?
Its inhibition at 2 µg/mL is 83%.

What about the inhibition at 10 µg/mL (Conc. of compound 10 μg/ml) of the same compound?
Its inhibition at 10 µg/mL is 95%.

What about the inhibition at 25 µg/mL (Conc. of compound 25 μg/ml) of the same compound?
The inhibition at 25 µg/mL was 95%.

What about the inhibition at 50 µg/mL of the same compound?
The inhibition at 50 µg/mL was 96%.
